Laboratory results: article PMC4648589, “Selection of an HLA-C*03:04-Restricted HIV-1 p24 Gag Sequence Variant Is Associated with Viral Escape from KIR2DL3+ Natural Killer Cells: Data from an Observational Cohort in South Africa” (PLoS Medicine, 2015)
“And” between values parts separate entries of the source, which are not always exact repeats. Identical values can stand only once.

Columns and labels:
[1] = tested on: primary KIR2DL3+ NK cells; assay: Primary NK cell degranulation (CD107a) against peptide-pulsed 721.221-ICP47-C*03:04 cells, KIR2DL3+ subset; format: cell-based, human; details: for KIR2DL3+ NK Cell Activity (Mean ± SEM): ratio of percent CD107a+ KIR2DL3+ NK cells with variant peptide to that with wild-type peptide; for Relative degranulation of KIR2DL3+ NK cells (CD107a): % CD107a+ NK cells divided by % with GKL control peptide, effector:target 1:5, 6 h at 26°C, mean ± SEM, nine donors
Method: (§1) To determine activation of primary NK cells following exposure to target cells pulsed with different peptide variants, NK cell degranulation assays measuring CD107a expression were performed using freshly isolated and purified NK cells from nine healthy KIR2DL3+ individuals. Primary NK cells were isolated by incubating whole blood with RosetteSep Human NK Cell Enrichment Cocktail (Stemcell Technologies) for 20 min at room temperature, followed by Histopaque-1077 (Sigma) density gradient centrifugation. NK cells were rested overnight in RPMI medium 1640 (Sigma-Aldrich) supplemented with 10% heat-inactivated fetal calf serum (Sigma-Aldrich), 2,500 U/ml penicillin, 2,500 μg/ml streptomycin, […] L-glutamine (Cellgro), and 1.0 ng/ml IL-15 (Cellgro). Subsequently, NK cells (1 × 10^5) were co-incubated with peptide-pulsed 721.221-ICP47-C*03:04 cells (5 × 10^5) at an effector:target ratio of 1:5 in RPMI containing anti-human CD107a-PE-Cy7 (12.5 μl/ml) and monensin (1.5 μl/ml, BD GolgiStop). Cells were incubated for 6 h at 26°C in 5% CO2. Cells were stained with 7AAD, anti-CD3-PB, anti-CD16-BV785, anti-CD56-BV605, anti-CD14/19-BV510, anti-KIR2DL2/3-PE, and anti-KIR2DL3-APC, washed, fixed with 4% (w/v in PBS) paraformaldehyde (Affymetrix), and analyzed by multiparameter flow cytometry using a BD LSR II.
Flow cytometry data were analyzed using FlowJo software version 10.0.6 (Tree Star), and statistical analysis was performed using GraphPad Prism 6 (GraphPad Software). HLA stabilization values are shown as mean relative fluorescence intensity; error bars represent standard deviation (SD). Relative fluorescence intensity was calculated by dividing the geometric mean fluorescence intensity (gMFI) of HLA expression in the presence of the tested peptide by the gMFI of stained target cells without peptide added in each respective assay. Binding of KIR2DL3-Fc is represented as percent of KIR2DL3+ cells ± SD. […] A repeated-measures one-way ANOVA was subsequently performed to compare the responses between the wild-type group and the groups of the two variant peptides, for the KIR2DL3+ and KIR2DL3− NK cells, respectively. This was followed by a Tukey’s post hoc test. Each individual was sampled one time.

KIR2DL3 = molecular target: T1, KIR2DL3 (Homo sapiens, UniProt P43628); assay: KIR2DL3-Fc binding to peptide-pulsed 721.221-ICP47-C*03:04 cells (flow cytometry); details: for KIR2DL3-Fc Binding (Mean ± SD): ratio of percent KIR2DL3-Fc binding of variant peptide to that of wild-type peptide TGag303; for KIR2DL3-Fc binding, percent of cells binding KIR2DL3-Fc: cells pulsed with 100 μM peptide for 20 h, 2.5 μg KIR2DL3-Fc, 1 h on ice, mean ± SD of six independent experiments
T1 construct: purchased R&D Systems (KIR2DL3-Fc); Immudex (HLA-C*03:04/peptide monomers)
T1 sequence (P43628 with tags, fused parts or gaps limits assumed): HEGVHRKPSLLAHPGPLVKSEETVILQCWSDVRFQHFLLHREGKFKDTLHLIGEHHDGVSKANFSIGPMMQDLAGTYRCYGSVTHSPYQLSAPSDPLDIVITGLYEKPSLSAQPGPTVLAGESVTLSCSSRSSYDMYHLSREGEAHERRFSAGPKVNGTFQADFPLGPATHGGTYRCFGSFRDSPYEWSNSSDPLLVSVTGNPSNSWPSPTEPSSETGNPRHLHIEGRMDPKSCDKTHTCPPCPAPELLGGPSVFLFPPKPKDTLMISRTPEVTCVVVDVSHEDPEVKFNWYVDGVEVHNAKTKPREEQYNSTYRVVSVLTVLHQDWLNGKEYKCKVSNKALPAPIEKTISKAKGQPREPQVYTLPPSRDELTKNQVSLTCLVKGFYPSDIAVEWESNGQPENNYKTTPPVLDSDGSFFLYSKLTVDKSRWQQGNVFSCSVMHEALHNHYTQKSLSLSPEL

HLA-C*03:04 = HLA-C*03:04 (Homo sapiens, UniProt P10321, A176E/A330V/A97T/C25G/C350S/D114A/D33Y/E197K/L119I/L127V/L171W/L218V/M285V/M309V/M331V/P208H/Q277E/Q291P/R243W/R45H/S123Y/S140Y/S297R/S48A/T118I/T187L/T329A/T363A/V319A); assay: HLA-C*03:04 stabilization assay on peptide-pulsed TAP-blocked 721.221-ICP47-C*03:04 cells (W6/32 staining, flow cytometry); format: cell-based; details: for HLA-C*03:04 stabilization, mean relative fluorescence intensity / HLA-C*03:04 stabilization, mean relative fluorescence intensity, titration: mean ± SD; for HLA-C*03:04 stabilization, mean relative fluorescence intensity: n = 3; for HLA-C*03:04 stabilization, mean relative fluorescence intensity (RFI): 100 μM peptide (saturating), 20 h at 26°C, gMFI with peptide divided by gMFI without peptide, mean ± SD of five experiments; for HLA-C*03:04 stabilization, mean relative fluorescence intensity, titration: serial peptide dilutions, non-saturating levels
[2] = tested on: primary KIR2DL3− NK cells; assay: Primary NK cell degranulation (CD107a) against peptide-pulsed 721.221-ICP47-C*03:04 cells, KIR2DL3− subset; format: cell-based, human; details: % CD107a+ NK cells divided by % with GKL control peptide; effector:target 1:5, 6 h at 26°C; mean ± SEM, nine donors
Method: as §1
Flow cytometry data were analyzed using FlowJo software version 10.0.6 (Tree Star), and statistical analysis was performed using GraphPad Prism 6 (GraphPad Software). HLA stabilization values are shown as mean relative fluorescence intensity; error bars represent standard deviation (SD). Relative fluorescence intensity was calculated by dividing the geometric mean fluorescence intensity (gMFI) of HLA expression in the presence of the tested peptide by the gMFI of stained target cells without peptide added in each respective assay. Binding of KIR2DL3-Fc is represented as percent of KIR2DL3+ cells ± SD. […]

[3] = molecular target: biotinylated HLA-C*03:04 monomer refolded with … (human | not stated | HIV-1 clade C); assay: SPR; Biacore 3000; […]) 10 μg/ml in PBS, 60 μl at 20 μl/min; HBS-EP; 25°C; […]
[4] = 0.1 μM peptide (non-saturating)

Sequence of recombinant human KIR2DL3-IgG-Fc chimera (P43628 22-245, change not shown): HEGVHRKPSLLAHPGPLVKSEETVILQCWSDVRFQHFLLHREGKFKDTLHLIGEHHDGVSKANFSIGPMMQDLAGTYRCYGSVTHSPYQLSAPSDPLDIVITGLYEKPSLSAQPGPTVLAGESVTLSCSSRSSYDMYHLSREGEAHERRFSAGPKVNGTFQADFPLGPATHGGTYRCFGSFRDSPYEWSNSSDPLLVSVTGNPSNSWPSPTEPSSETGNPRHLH

Substance	KIR2DL3+ NK Cell Activity (Mean ± SEM) [1]	KIR2DL3 binding (in words) (KIR2DL3; HLA-C*03:04 stabilized at similar levels, used as negative control)	KIR2DL3-Fc Binding (Mean ± SD) (KIR2DL3)	HLA-C*03:04 stabilization, mean relative fluorescence intensity (HLA-C*03:04; [4])	HLA-C*03:04 stabilization, mean relative fluorescence intensity (HLA-C*03:04; 1 μM peptide (non-saturating))	Relative degranulation of KIR2DL3− NK cells (CD107a) [2]	Relative degranulation of KIR2DL3+ NK cells (CD107a) [1]	KIR2DL3-Fc binding, percent of cells binding KIR2DL3-Fc (KIR2DL3) [%]	HLA-C*03:04 stabilization, mean relative fluorescence intensity (RFI) (HLA-C*03:04)	HLA-C*03:04 stabilization, mean relative fluorescence intensity, titration (HLA-C*03:04)	Kd [3]
GAVDPLLKL [GKL, reference compound]	1.70 ± 0.3	did not allow for KIR2DL3 binding	0.06 ± 0.03								
RALGPAATL				1.29 ± 0.19	2.72 ± 0.81						
RALGPGATL				2.26 ± 0.39	4.24 ± 0.46						
YVDRFFKAL [TGag303A]	1.36 ± 0.33		0.90 ± 0.17			1.06 ± 0.04	0.89 ± 0.05	15.46 ± 7.24	3.17 ± 0.53	1.84 ± 0.79	
YVDRFFKTL [TGag303]						1.06 ± 0.04	0.78 ± 0.07	18.01 ± 10.45	3.24 ± 0.64	2.60 ± 1.45	
YVDRFFKVL [TGag303V]	0.76 ± 0.08		2.74 ± 0.66			1.04 ± 0.05	0.63 ± 0.07	44.67 ± 14.42	3.40 ± 0.74	2.17 ± 1.36	
recombinant human KIR2DL3-IgG-Fc chimera (from UniProt P43628) (Fc fusion)											93 nM and 77 nM
